Assay results published in US10660967B2, “Curcumin conjugates and methods of use thereof” (priority 2016, dated 2020).
In brackets after ≈: the same amount, converted by molar mass. Several values for one entry are separate records, joined by “and”; a condition that tells them apart may be missing. Equal values may be shown once. Read-outs that look alike come from different tables or passages of the source. Values belong to the compound of their own block, whether it stands above or below them.

Legend:
[1] = tested on: Candida albicans (local isolate); experiment: Antimicrobial MIC, agar dilution; settings: Candida albicans (local isolate)
[2] = tested on: Salmonella typhi ATCC19430; experiment: Antimicrobial MIC, agar dilution; format: cell-based; settings: Salmonella enterica, read-out: Minimum inhibitory concentration (MIC)
[3] = tested on: Staphylococcus aureus ATCC25923; experiment: Antimicrobial MIC, agar dilution; settings: ATCC25923, 18 h, read-out: Minimum inhibitory concentration (MIC)
[4] = tested on: Streptococcus pyogenes ATCC19615; experiment: Antimicrobial MIC, agar dilution
[5] = tested on: Pseudomonas aeruginosa ATCC27853; experiment: Antimicrobial MIC, agar dilution
[6] = tested on: carrageenan induced paw edema; experiment: Anti-inflammatory activity: acute carrageenan induced paw edema in rats; format: in vivo, Wister rats; settings: 10 mg kg^−1 indomethacin mol equivalent; for % inhibition of edema / Mean edema thickness: intraperitoneally; for Mean edema thickness: mean ± SE; for Potency (% inhibition of edema relative to that of indomethacin reference standard): at 4 h effect
How it was run: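 Wistar rats (120–150 g, n=6/group) received subplantar 1% carrageenan in the right hind paw, and DMSO-vehicle animals served as controls. Results are given as % inhibition of edema thickness versus control.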

gastric mucosa = experiment: Ulcerogenic liability (ulcer index); format: in vivo, albino mice
Protocol: The ulcerogenic liability was investigated in albino mice using the standard method. […] The animals were fasted 18 h before drug administration. […] The control group animals were given saline solution only with few drops of Tween 80. […] The gastric mucosa was examined with a magnifying lens (10×) for the presence of lesions and erosions.
1. percentage incidence of ulcer divided by 10;
2. average number of ulcers per stomach; and
3. average severity of ulcers;

[7] = tested on: PHA-stimulated splenocytes; experiment: Proliferative response of PHA-stimulated splenocytes (MTT assay); format: cell-based
Protocol: Immunomodulatory effects of the synthesized curcumin conjugates on the proliferative response of PHA-stimulated splenocytes were evaluated. The effect of curcumin and its amino acid conjugates on splenocyte viability and proliferation in response to a T cell miotgen (Phytohaemagglutinin; PHA) was evaluated using the MTT assay. Freshly prepared splenocytes (1×10^6 cells/200 μl/well) were cultured in a 96-well U-bottom microtiter plate (Nunc) in complete medium. Cells were treated with tested compounds at a final concentration of 10 μM, vehicle (DMSO) or left untreated in triplicate then incubated at 37° C. and 5% CO2. When testing the immunoregulatory effects of the compounds on splenocyte stimulation, PHA (5 μg/ml) was added to the culture media to induce T cell proliferation. The proliferative response to PHA+vehicle and vehicle alone served as controls. After 72 hr, media were removed after pelleting the cells by centrifugation and MTT salt solution (5 mg/ml) was added into each well then incubated at 37° C. for 4 h. Afterwards, formazan crystals were dissolved by adding 150 μl 10% sodium dodecyl sulfate (SDS). Absorbance was measured with a spectrophotometer at 570 nm and reference wavelength of 690 nm.
Splenocyte stimulation index was determined as the ratio of O.D. values in tested compounds versus vehicle control cultures.

[8] = tested on: lipopolysaccharide-stimulated peritoneal macrophages; experiment: Production of nitric oxide by lipopolysaccharide-stimulated peritoneal macrophages (Greiss reagent); format: cell-based; set-up: Potency (%): % inhibition of nitric oxide production relative to lipopolysaccharide-stimulated macrophages: concentration or dose not given beside the values; settings: LPS-stimulated peritoneal macrophages
Protocol: The effects of the synthesized curcumin conjugates on the production of nitric oxide (μM) by lipopolysaccharide-stimulated peritoneal macrophages were evaluated.
Two milliliters of macrophage cells were seeded in 12-well tissue culture plates in nitrite-free medium supplemented with 0.1% bovine serum albumin and incubated at 37° C. LPS±epinephrine, norepinephrine, or dopamine at […] concentrations was added to some wells. The concentrations of LPS used ranged from 0.5 to 10 ng/ml. After incubation for 24 h, supernatants were collected for measuring nitric oxide (NO) by spectrophotometry. The production of NO was determined from the accumulation of nitrite (NO2), the metabolic end product of NO metabolism, in the medium using the Greiss reagent. About equal volumes (100 μl) of sample and Greiss reagent (1:1 mixture of 1% sulfanilamide in 5% phosphoric acid, and 0.1% a-naphthylamine in distilled water) were mixed and incubated at room temperature for 15 min, and absorbance was measured at 532 nm on a spectrophotometer.

[9] = ATCC19615, 18 h, read-out: Minimum inhibitory concentration (MIC)
[10] = ATCC19615, read-out: Minimum inhibitory concentration (MIC)
[11] = ATCC27853, 18 h, read-out: Minimum inhibitory concentration (MIC)
[12] = ATCC27853, read-out: Minimum inhibitory concentration (MIC)
[13] = both, albino, mouse, in vivo, po, 10 mg/kg, 3 days
[14] = orally, three successive days, 10 mg/kg indomethacin mol equivalent

Minimum inhibitory concentration (MIC) ([1]; 37° C., 18 h): 0.39 µg/mL (≈ 0.000422 mM)
Minimum inhibitory concentration (MIC) ([1]; value in brackets): (0.422) μM
Compound: C[C@@H]1[C@H](O)[C@@H](C)/C=C/C=C/C=C/C=C/C=C/C=C/C=C/[C@H](O[C@@H]2O[C@H](C)[C@@H](O)[C@H](N)[C@@H]2O)C[C@@H]2O[C@](O)(C[C@@H](O)C[C@@H](O)[C@H](O)CC[C@@H](O)C[C@@H](O)CC(=O)O[C@H]1C)C[C@H](O)[C@H]2C(=O)O [Amphotericin B, reference compound]

Compound: O=C(O)c1cn(C2CC2)c2cc(N3CCNCC3)c(F)cc2c1=O [Ciprofloxacin, reference compound]
MIC ([2]; 18 h): 2.4 µg/mL
MIC [2]: 7.24 µM
MIC [3]: 1250 µg/mL (≈ 3.77 mM)
MIC [4, 9]: 1250 µg/mL
MIC [4, 10]: 3770 µM
MIC [5, 11]: 4.8 µg/mL
MIC [5, 12]: 14.5 µM

Compound: COc1cc(/C=C/C(=O)CC(=O)/C=C/c2ccc(OC(=O)[C@@H](N)C(C)C)c(OC)c2)ccc1OC(=O)[C@@H](N)C(C)C.Cl.Cl [Compound 41]
% inhibition of edema ([6]; 1 h): 60%
Mean edema thickness ([6]; 1 h): 0.97 ± 0.10 mm
% inhibition of edema ([6]; 2 h): 50%
Mean edema thickness ([6]; 2 h): 1.04 ± 0.12 mm
% inhibition of edema ([6]; 3 h): 48%
Mean edema thickness ([6]; 3 h): 0.93 ± 0.11 mm
% inhibition of edema ([6]; 4 h): 46%
Mean edema thickness ([6]; 4 h): 0.75 ± 0.09 mm
% inhibition of edema ([6]; 24 h): 14%
Mean edema thickness ([6]; 24 h): 0.71 ± 0.11 mm
Potency (% inhibition of edema relative to that of indomethacin reference standard) [6]: 53

Compound: CC[C@H](C)[C@H](N)C(=O)Oc1ccc(/C=C/C(=O)CC(=O)/C=C/c2ccc(OC(=O)[C@@H](N)[C@@H](C)CC)c(OC)c2)cc1OC.Cl.Cl [Compound 42]
% inhibition of edema ([6]; 1 h): 59% and 33%
Mean edema thickness ([6]; 1 h): 0.99 ± 0.09 mm and 1.61 ± 0.07 mm
% inhibition of edema ([6]; 2 h): 54% and 36%
Mean edema thickness ([6]; 2 h): 0.95 ± 0.09 mm and 1.31 ± 0.09 mm
% inhibition of edema ([6]; 3 h): 65% and 47%
% inhibition of edema ([6]; 4 h): 98% and 76%
% inhibition of edema ([6]; 24 h): 35% and 30%
Mean edema thickness ([6]; 24 h): 0.54 ± 0.01 mm and 0.58 ± 0.08 mm
Potency (% inhibition of edema relative to that of indomethacin reference standard) [6]: 113 and 87

Compound: COc1cc(/C=C/C(=O)CC(=O)/C=C/c2ccc(OC(=O)[C@@H](N)CCC(N)=O)c(OC)c2)ccc1OC(=O)[C@@H](N)CCC(N)=O.Cl.Cl [Compound 43]
% inhibition of edema ([6]; 1 h): 46%
Mean edema thickness ([6]; 1 h): 1.29 ± 0.19 mm
% inhibition of edema ([6]; 2 h): 45%
Mean edema thickness ([6]; 2 h): 1.14 ± 0.11 mm
% inhibition of edema ([6]; 3 h): 43%
Mean edema thickness ([6]; 3 h): 1.02 ± 0.14 mm
% inhibition of edema ([6]; 4 h): 42%
Mean edema thickness ([6]; 4 h): 0.81 ± 0.11 mm
% inhibition of edema ([6]; 24 h): 31%
Mean edema thickness ([6]; 24 h): 0.57 ± 0.09 mm
Potency (% inhibition of edema relative to that of indomethacin reference standard) [6]: 48

Compound: CC(C)Cc1ccc(C(C)C(=O)O)cc1 (stereo not drawn) [Ibuprofen, 2-(4-isobutylphenyl)propanoic acid, reference compound]
Average of ulcer number (gastric mucosa; [13]): 0.33
Average severity of ulcer (gastric mucosa; [13]): 0.67
Number of animals with ulcer (gastric mucosa; [13]): 2/6
% Incidence of ulcer divided by 10 (gastric mucosa; [14]): 3.33

Compound: COc1ccc2c(c1)c(CC(=O)O)c(C)n2C(=O)c1ccc(Cl)cc1 [Indomethacin, 2-(1-(4-chlorobenzoyl)-5-methoxy-2-methyl-1H-indol-3-yl)acetic acid, reference compound]
% Incidence of ulcer divided by 10 (gastric mucosa; [13]): 10
Average of ulcer number (gastric mucosa; [13]): 2
Number of animals with ulcer (gastric mucosa; [13]): 6/6
Average severity of ulcer (gastric mucosa; [14]): 1.67
Ulcer index (gastric mucosa; sum of the three values, orally, three successive days, 10 mg/kg indomethacin mol equivalent): 13.67

Compound: CCn1cc(C(=O)O)c(=O)c2cc(F)c(N3CCNCC3)cc21 [Norfloxacin, reference compound]
MIC ([2]; 18 h): 2.4 µg/mL
MIC [2]: 7.52 µM
MIC [3]: 1250 µg/mL (≈ 3.91 mM)
MIC [4, 9]: 625 µg/mL
MIC [4, 10]: 1960 µM
MIC [5, 11]: 4.8 µg/mL
MIC [5, 12]: 15 µM

Compound: Phytohaemagglutinin [PHA, reference compound]
Stimulation Index (average ± SD) ([7]; PHA 5 μg/ml, 72 hr, compounds at 5 μM (method says 10 μM), ratio of O.D. versus vehicle control): 2.78 ± 0.28
splenocyte proliferation, fold relative to untreated control cells ([7]; in the presence of PHA, text of b265): 2.76 fold

Compound: lipopolysaccharide [LPS, reference compound]
Potency (%): % inhibition of nitric oxide production relative to lipopolysaccharide-stimulated macrophages [8]: 0.00%
Nitric oxide (nitrite) concentration, μM (average ± SD) ([8]; 24 h, nitrite by Greiss reagent): 27.31 ± 2.56 µM
